This note sets out measurements from patent US10183936B2, “Hepatitis B core protein allosteric modulators” (priority 2014, dated 2019).

The structures appear in SMILES notation.

Data set [1] relates to HBV viral production in AD38 cells. Briefly: Viral load production in AD38 cells by quantitative PCR of the HBV core sequence in supernatant. The format is cell-based. The note with it: Hepatitis B virus, 144 h; 10 μM compound, 6 days at 37° C., viral load in supernatant compared against DMSO control wells; read-out: AD38 Viral Load (CpAM/DMSO %) at 10 μM. The procedure, abridged:
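AD38 cells seeded at 50,000/well, treated 6 days at 37° C with compound added as 10× solution in 10% DMSO. HBV core sequence in clarified supernatant quantified by TaqMan qPCR against known standards; viral load compared with DMSO control wells.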

A further data set has as its system AD38 cells. Kind of data set: Viability of AD38 cells (Promega CellTiter-Glo) at the end of compound treatment. The note with it: 10 μM compound, 6 days, luminescence normalized against DMSO control wells (controls being 100%). The format is cell-based. The method in brief: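 AD38 cells seeded at 50,000/well received compound from a 10× solution in 10% DMSO and were incubated 6 days at 37° C. Viability was then read by CellTiter-Glo luminescence in tetracycline-free medium with 2% FBS and 1% DMSO, normalized to DMSO control wells (100%) and reported as percent viability.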
For orientation: ATP-based viability assays read luminescence as a measure of living cells.

Consider `O=C(Nc1ccncc1)c1ccc2c(c1)NC(=O)c1ccccc1[S+]2[O-]` (centres unmarked) [Compound 1382], for which the activity at 10 µM in data set [1] is 47%. Besides, the “AD38 Viability Normalized Result (CPAM/DMSO %) at 10 μM” value in the data set on AD38 cells turned out to be 117%.

For `O=C(NCCc1ccccn1)c1ccc2c(c1)NC(=O)c1cccc(F)c1S2` [Compound 1383], the activity at 10 µM in data set [1] amounted to 1%. Further, the “AD38 Viability Normalized Result (CPAM/DMSO %) at 10 μM” value with AD38 cells is on record as 87%.

In the case of `CN(C)S(=O)(=O)c1ccc(CCNC(=O)c2ccc3c(c2)NC(=O)c2cc(F)ccc2S3)cc1` [Compound 1384], the activity at 10 µM in data set [1] is 4%. For the same compound, in the data set with AD38 cells, the “AD38 Viability Normalized Result (CPAM/DMSO %) at 10 μM” value is listed as 79%.

Consider `O=C(Nc1cccc(-c2ccccn2)c1)c1ccc2c(c1)NC(=O)c1cc(F)ccc1S2` [Compound 1385], for which the activity at 10 µM in data set [1] turned out to be 26%. The “AD38 Viability Normalized Result (CPAM/DMSO %) at 10 μM” value with AD38 cells worked out at 51%.

Turning to `O=C(Nc1cccc(-c2cnco2)c1)c1ccc2c(c1)NC(=O)c1cc(F)ccc1S2` [Compound 1386], the activity at 10 µM in data set [1] worked out at 61%. Moreover, the “AD38 Viability Normalized Result (CPAM/DMSO %) at 10 μM” value in the data set with AD38 cells worked out at 95%.

In the case of `CN(C)S(=O)(=O)c1ccc(CCNC(=O)c2ccc3c(c2)NC(=O)c2ccc(F)cc2S3)cc1` [Compound 1387], in data set [1], the activity at 10 µM turned out to be 2%. Moreover, the “AD38 Viability Normalized Result (CPAM/DMSO %) at 10 μM” value in the data set on AD38 cells is reported as 78%.

On to `O=C(NCc1cncs1)c1ccc2c(c1)NC(=O)c1ccccc1[S+]2[O-]` (centres unmarked) [Compound 1388], for which the activity at 10 µM in data set [1] worked out at 5%. Also, in the data set on AD38 cells, the “AD38 Viability Normalized Result (CPAM/DMSO %) at 10 μM” value came out at 71%.

In the case of `O=C(NCCc1cccnc1)c1ccc2c(c1)NC(=O)c1ccccc1[S+]2[O-]` (centres unmarked) [Compound 1389], the activity at 10 µM in data set [1] was 15%. Besides, in the data set with AD38 cells, the “AD38 Viability Normalized Result (CPAM/DMSO %) at 10 μM” value came out at 89%.

In the case of `O=C(NCc1cncnc1)c1ccc2c(c1)NC(=O)c1cccc(F)c1S2` [Compound 1390], in data set [1], the activity at 10 µM was found to be 2%. The “AD38 Viability Normalized Result (CPAM/DMSO %) at 10 μM” value with AD38 cells came to 92%.

Turning to `O=C(NCCc1cccnc1)c1ccc2c(c1)NC(=O)c1cccc(F)c1S2` [Compound 1391], in data set [1], the activity at 10 µM is 2%. The “AD38 Viability Normalized Result (CPAM/DMSO %) at 10 μM” value in the data set with AD38 cells was 71%.

For `O=C(NCc1cccnc1)c1ccc2c(c1)NC(=O)c1cccc(F)c1S2` [Compound 1392], the activity at 10 µM in data set [1] is 2%. Further, the “AD38 Viability Normalized Result (CPAM/DMSO %) at 10 μM” value with AD38 cells is 85%.

For `O=C(Nc1ccncc1)c1ccc2c(c1)NC(=O)c1cccc(F)c1S2` [Compound 1393], the activity at 10 µM in data set [1] stood at 41%. Besides, the “AD38 Viability Normalized Result (CPAM/DMSO %) at 10 μM” value in the data set with AD38 cells is 87%.

Regarding `O=C(NCCc1ccccn1)c1cc2c(cc1F)Sc1ccccc1C(=O)N2` [Compound 1394], in data set [1], the activity at 10 µM came to 55%. Further, in the data set on AD38 cells, the “AD38 Viability Normalized Result (CPAM/DMSO %) at 10 μM” value stood at 94%.

For the compound `O=C(NCCc1cccnc1)c1cc2c(cc1F)Sc1ccccc1C(=O)N2` [Compound 1395], the activity at 10 µM in data set [1] worked out at 64%. In addition, the “AD38 Viability Normalized Result (CPAM/DMSO %) at 10 μM” value in the data set on AD38 cells is listed as 79%.

Regarding `O=C(NCc1cccnc1)c1cc2c(cc1F)Sc1ccccc1C(=O)N2` [Compound 1396], the activity at 10 µM in data set [1] was determined as 63%. Moreover, the “AD38 Viability Normalized Result (CPAM/DMSO %) at 10 μM” value with AD38 cells was 95%.

Regarding `COCC(Cc1cncnc1)NC(=O)c1ccc2c(c1)NC(=O)c1cc(F)ccc1S2` (centres unmarked) [Compound 1397], the activity at 10 µM in data set [1] is 73%. The “AD38 Viability Normalized Result (CPAM/DMSO %) at 10 μM” value in the data set on AD38 cells worked out at 95%.

Turning to `CN(C)S(=O)(=O)c1ccc(CCCNC(=O)c2ccc3c(c2)NC(=O)c2ccc(F)cc2S3)cc1` [Compound 1398], the activity at 10 µM in data set [1] amounted to 5%. Besides, the “AD38 Viability Normalized Result (CPAM/DMSO %) at 10 μM” value in the data set with AD38 cells stood at 60%.

On to `O=C1Nc2cc(S(=O)(=O)N3CCCCC3)ccc2Sc2ccccc21` [Compound 1399], for which the activity at 10 µM in data set [1] is 105%. In addition, the “AD38 Viability Normalized Result (CPAM/DMSO %) at 10 μM” value in the data set with AD38 cells stood at 92%.

Consider `O=C(Nc1cccc(-c2cccnc2)c1)c1ccc2c(c1)NC(=O)c1cc(F)ccc1S2` [Compound 1400], for which the activity at 10 µM in data set [1] came to 34%. Besides, the “AD38 Viability Normalized Result (CPAM/DMSO %) at 10 μM” value with AD38 cells turned out to be 105%.

Consider `O=C(NCCc1cnco1)c1ccc2c(c1)NC(=O)c1ccc(F)cc1S2` [Compound 1402], for which the activity at 10 µM in data set [1] is 12%. The “AD38 Viability Normalized Result (CPAM/DMSO %) at 10 μM” value with AD38 cells was 81%.

`O=C(NCCc1cncs1)c1ccc2c(c1)NC(=O)c1ccc(F)cc1S2` [Compound 1403]: the activity at 10 µM in data set [1] is 15%. Moreover, the “AD38 Viability Normalized Result (CPAM/DMSO %) at 10 μM” value in the data set with AD38 cells came to 82%.

As for `CCOC(=O)C(NC(=O)c1ccc2c(c1)NC(=O)c1cc(F)ccc1S2)c1ccncc1` (centres unmarked) [Compound 1405], in data set [1], the activity at 10 µM is 14%. The “AD38 Viability Normalized Result (CPAM/DMSO %) at 10 μM” value in the data set with AD38 cells was 94%.

`O=C(NCc1cncs1)c1ccc2c(c1)NC(=O)c1cccc(F)c1S2` [Compound 1407]: the activity at 10 µM in data set [1] stood at 3%. In addition, the “AD38 Viability Normalized Result (CPAM/DMSO %) at 10 μM” value in the data set on AD38 cells is 103%.

`O=C(NCc1cnco1)c1ccc2c(c1)NC(=O)c1cccc(F)c1S2` [Compound 1408]: the activity at 10 µM in data set [1] amounted to 17%. Besides, the “AD38 Viability Normalized Result (CPAM/DMSO %) at 10 μM” value with AD38 cells is 94%.

`O=C(NCCc1cncnc1)c1ccc2c(c1)NC(=O)c1cccc(F)c1S2` [Compound 1409]: in data set [1], the activity at 10 µM was found to be 4%. Besides, the “AD38 Viability Normalized Result (CPAM/DMSO %) at 10 μM” value with AD38 cells came to 83%.

`O=C(Nc1cccc(-c2ccccc2)c1)c1ccc2c(c1)NC(=O)c1cccc(F)c1S2` [Compound 1410]: in data set [1], the activity at 10 µM was determined as 35%. Also, in the data set with AD38 cells, the “AD38 Viability Normalized Result (CPAM/DMSO %) at 10 μM” value stood at 50%.

For the compound `O=C(NCCc1cncnc1)c1cc2c(cc1F)Sc1ccccc1C(=O)N2` [Compound 1411], the activity at 10 µM in data set [1] amounted to 66%. For the same compound, the “AD38 Viability Normalized Result (CPAM/DMSO %) at 10 μM” value with AD38 cells was determined as 91%.

`O=C1Nc2cc(S(=O)(=O)Nc3ccccc3)ccc2Sc2ccccc21` [Compound 1412]: the activity at 10 µM in data set [1] is 48%. Moreover, in the data set with AD38 cells, the “AD38 Viability Normalized Result (CPAM/DMSO %) at 10 μM” value turned out to be 87%.

For the compound `O=C1Nc2cc(S(=O)(=O)Nc3ccc(F)cc3)ccc2Sc2ccccc21` [Compound 1413], the activity at 10 µM in data set [1] came out at 92%. Moreover, in the data set on AD38 cells, the “AD38 Viability Normalized Result (CPAM/DMSO %) at 10 μM” value is reported as 78%.

`O=C1Nc2cc(S(=O)(=O)NCc3ccccc3)ccc2Sc2ccccc21` [Compound 1414]: in data set [1], the activity at 10 µM came out at 39%. Also, in the data set on AD38 cells, the “AD38 Viability Normalized Result (CPAM/DMSO %) at 10 μM” value is on record as 89%.

With `O=C1Nc2cc(S(=O)(=O)NCc3ccc(F)cc3)ccc2Sc2ccccc21` [Compound 1415], the activity at 10 µM in data set [1] came out at 27%. Besides, the “AD38 Viability Normalized Result (CPAM/DMSO %) at 10 μM” value in the data set on AD38 cells was determined as 77%.

As for `O=C(NCCc1cnco1)c1ccc2c(c1)NC(=O)c1cc(F)ccc1S2` [Compound 1417], the activity at 10 µM in data set [1] is 11%. The “AD38 Viability Normalized Result (CPAM/DMSO %) at 10 μM” value in the data set with AD38 cells amounted to 75%.

Regarding `O=C(NCCc1cncs1)c1ccc2c(c1)NC(=O)c1cc(F)ccc1S2` [Compound 1418], the activity at 10 µM in data set [1] stood at 12%. In addition, the “AD38 Viability Normalized Result (CPAM/DMSO %) at 10 μM” value with AD38 cells was found to be 73%.

`O=C(O)c1ccc(-c2cccc(NC(=O)c3ccc4c(c3)NC(=O)c3cc(F)ccc3S4)c2)cc1` [Compound 1419, 3′-(2-fluoro-11-oxo-10, 11-dihydrodibenzo [b,f] [1,4]thiazepine-8-carboxamido)-[1, 1′-biphenyl]-4-carboxylic acid]: in data set [1], the activity at 10 µM is 113%. In the data set on AD38 cells, the “AD38 Viability Normalized Result (CPAM/DMSO %) at 10 μM” value was determined as 89%.
